Assay results reported in paper PMC5671392, “Optimization of an in vitro assay methodology for competitive binding of thyroidogenic xenobiotics with thyroxine on human transthyretin and albumin” (MethodsX, 2017).

Columns and labels:
[1] = test system: human TTR isolated from human plasma; set-up: method as in PMID 19033396; conditions: in vitro; cited from earlier work
human albumin (ALB) = human albumin (ALB) (Homo sapiens, UniProt P02768); assay: Competitive T4 radio-ligand (125I-T4) binding assay with human albumin; conditions: 600 nM ALB
Text: (§1) The entire assay takes two days to complete for each batch of samples to be processed. The Day 1 procedure is described as follows. […] First, thaw the working solutions of these components to room temperature if they have been placed in frozen storage. For the protein working solutions, prepare the day they are to be used based on the number of assay aliquots required (one vial is sufficient for approximately 45 assay samples). […] Label a series of polypropylene test tubes corresponding to the samples being prepared. This should include triplicate samples for each ligand competitor concentration.
(§2) The following steps describe the order of pipetting components for assay incubation mixtures. • 1. […] Continue for each increasing concentration of the ligand. Control samples receive 5 μL of DMSO in place of a competitor ligand. • 2. […] Centrifuge the samples at 300 × g for 30 s to force the solution to the bottom of the tube. • 4. Measure the initial radioactivity on the gamma counter. […]
(§3) Label a series of clean test tubes corresponding to the samples prepared on Day 1 and repeat these labels on Bio-Spin® columns. Work on one replicate set at a time, leaving the remaining columns and incubation mixtures in the fridge until ready for processing. […] Measure the radioactivity of the eluate fraction, as well as the residual radioactivity in the incubation tubes containing the discarded pipette tips. […]

[2] = target: human transthyretin (TTR) (Homo sapiens, UniProt P02766); assay: Competitive T4 radio-ligand (125I-T4) binding assay with human transthyretin; conditions: 30 nM TTR
Text: as §1, §2, §3

human albumin (ALB), sequence (P02768 25-609): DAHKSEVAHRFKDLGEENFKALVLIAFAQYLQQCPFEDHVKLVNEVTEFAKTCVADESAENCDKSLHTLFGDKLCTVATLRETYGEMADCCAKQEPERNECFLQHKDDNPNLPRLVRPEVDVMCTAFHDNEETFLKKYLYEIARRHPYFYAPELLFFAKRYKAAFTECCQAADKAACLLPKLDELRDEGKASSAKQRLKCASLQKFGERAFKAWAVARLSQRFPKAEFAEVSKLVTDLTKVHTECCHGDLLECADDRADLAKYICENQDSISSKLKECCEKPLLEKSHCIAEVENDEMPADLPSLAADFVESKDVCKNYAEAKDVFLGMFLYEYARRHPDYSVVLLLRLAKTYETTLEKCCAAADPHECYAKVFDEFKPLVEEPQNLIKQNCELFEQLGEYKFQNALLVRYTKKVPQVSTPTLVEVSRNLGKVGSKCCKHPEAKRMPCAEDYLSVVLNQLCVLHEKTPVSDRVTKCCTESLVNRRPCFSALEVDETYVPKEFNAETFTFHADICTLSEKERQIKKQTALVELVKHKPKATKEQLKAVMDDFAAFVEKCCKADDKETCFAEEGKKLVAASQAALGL

For `Oc1cc(Br)c(Oc2ccc(Br)cc2Br)cc1Br` [4-OH-BDE-49, 4′-hydroxy-2,2′,4,5′-tetrabromodiphenyl ether], which “Binding affinity for human TTR compared with T4” value [1] is on record?
Its value is “higher affinity than T4”.

What about the IC50 (human albumin (ALB); read-out: IC50, T4-ALB competitive binding, 55 nM T4 + 125I-T4, overnight at 4 °C, Tris-EDTA pH 8.0, 6 replicates) of the same compound?
The IC50 was 1.15 nM.

What about the Ki (human albumin (ALB); read-out: Ki, T4-ALB competitive binding, calculated from IC50 after Cheng and Prusoff, unit inferred) of the same compound?
Its Ki is 1.08 nM.

And the IC50 ([2]; read-out: IC50, T4-TTR competitive binding, 55 nM T4 + 125I-T4, overnight at 4 °C, Tris-EDTA pH 8.0, 6 replicates)?
The IC50 was 12.2 nM.

And the Ki ([2]; read-out: Ki, T4-TTR competitive binding, calculated from IC50 after Cheng and Prusoff, unit inferred)?
Its Ki is 12.2 nM.
